{"source": "patent US20050032221A1", "about": "“Dominant negative variants of methionine aminopeptidase 2 (MetAP2) and clinical uses thereof” (priority 2001, published 2005)", "key": {"peptide substrate (MGMM)": {"test_system": "peptide substrate (MGMM)", "sequence (P38174 whole entry H174A)": "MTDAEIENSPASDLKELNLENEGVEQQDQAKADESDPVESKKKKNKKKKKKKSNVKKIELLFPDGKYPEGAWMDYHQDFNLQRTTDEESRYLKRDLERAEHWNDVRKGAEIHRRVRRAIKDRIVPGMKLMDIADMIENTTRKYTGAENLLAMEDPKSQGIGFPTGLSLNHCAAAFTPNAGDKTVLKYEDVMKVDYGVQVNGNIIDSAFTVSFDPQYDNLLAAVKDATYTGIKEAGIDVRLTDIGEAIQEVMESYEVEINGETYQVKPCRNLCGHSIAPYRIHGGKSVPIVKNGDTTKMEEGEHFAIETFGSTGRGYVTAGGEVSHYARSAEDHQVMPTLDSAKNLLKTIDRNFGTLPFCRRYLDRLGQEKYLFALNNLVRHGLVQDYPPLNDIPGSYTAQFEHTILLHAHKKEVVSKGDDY", "assay": "MetAP activity assay of immunopurified HA-tagged yeast MetAP2 with Met-Gly-Met-Met", "assay_type": "biochemical", "conditions": "immunopurified HA-tagged enzyme from map1Δ", "method": "[…]. Approximately 2 μg of purified wild-type MetAP2 (WT) and MetAP2 (H174A) was separated on a 10% SDS-PAGE gel and visualized with coomassie blue staining. Specific activity for the wild-type MetAP2 was 11±0.5 U/mg.\nThe purification of HA-tagged wild-type and mutant yeast MetAP2 from a yeast map1Δ strain (Klinkenberg et al., Arch. Biochem. Biophys. 347:193-200, 1997) was performed as previously described (Li and Chang, 1995) with slight modifications. A 1-liter yeast culture was grown aerobically at 30° C. in SG/Leu^− medium. Cells were collected at an OD600˜1-2 by centrifugation at 1500×g for 5 min. The pellet was rinsed with buffer XL (10 mM Hepes, pH 7.4; 1.5 mM MgCl2, 10% Glycerol [v/v]) plus 100 mM NaCl and fresh protease inhibitors (1 μg/ml aprotinin, 1 μg/ml leupeptin, 0.7 μg/ml pepstatin A, 1 mM phenylmethylsulfonyl fluoride). Cells were disrupted by vortexing (5 cycles of 1 min vortexing, 1 min on ice) with 0.5-mm acid-washed glass beads (Biospec Products, Inc.,). The lysate was then cleared at 10,000×g for 20 min at 4° C. Cleared lysate was applied to a Protein-Sepharose G column (Pharmacia) previously rinsed and pre-equilibrated with buffer XL and an anti-hemagglutinin epitope ([…]; SEQ ID NO:23) monoclonal antibody (BabCO). After loading, the column was washed with buffer XL until OD280<0.01. […]"}, "yeast map1Δ strain": {"test_system": "yeast map1Δ strain", "assay": "Yeast growth assay, map1Δ, expression under GAL1 promoter", "assay_type": "cell-based, yeast (S. cerevisiae)", "method": "A haploid yeast map1Δ strain was transformed to leucine prototrophy with p425GAL1/MAP2 wild-type (WT), p425GAL1/map2 (H174A), or p425GAL1 vector alone (V). Each strain was grown to mid-logarithmic phase at 30° C. in minimal synthetic raffinose medium lacking leucine. Approximately 2×10^5 cells (ABS600) were then streaked onto minimal synthetic plates lacking leucine and supplemented with (A) glucose or (B) galactose. Plates were incubated for 4 days at 30° C.\nA haploid yeast map1Δ strain was transformed to leucine prototrophy with p425GAL1/MAP2 wild-type (WT), p425GAL1/map2 ([…]), p425GAL1/map2 (Δ2-57/H174A) or p425GAL1 vector alone (V). Each strain was grown to mid-logarithmic phase at 30° C. in minimal synthetic raffinose medium lacking leucine. […]\nFor relative growth comparison, strains were grown to mid-logarithmic phase in 5 ml of 2% raffinose minimal media lacking leucine and ˜2×10^5 cells (ABS600) were streaked onto SD/Leu^− or SG/Leu^− plates, then incubated for 4 days at 30° C. For quantitative comparison, a growth curve was obtained (FIG. 4). […] The ABS600 of each 1 mL culture was measured and diluted to an ABS600 of 0.2 in 5 mL of SG/Leu^−. Each 5 mL culture was then grown aerobically at 30° C. and the ABS600 was measured in triplicate at one-hour intervals."}}}
{"substance": "MetAP2 (H174A): variant yeast MetAP2 with His174 replaced by alanine, N-terminal HA tag; dominant negative (SEQ ID NO:8)", "values": [{"measurement": "activity against a peptide substrate (MGMM) in vitro", "setting": "peptide substrate (MGMM)", "result": "no detectable activity"}, {"measurement": "doubling time", "setting": "yeast map1Δ strain; SG/Leu- medium, 30° C.", "result": "9.3 ± 0.6", "unit": "h"}, {"measurement": "colony size / growth relative to map1Δ with vector alone", "setting": "yeast map1Δ strain; galactose plates, 4 days at 30° C.", "result": "smaller colonies"}]}
